Results on 1 compound are retold here after ChEMBL document CHEMBL5038618, “Discovery of PT-65 as a highly potent and selective Proteolysis-targeting chimera degrader of GSK3 for treating Alzheimer's disease” (Eur J Med Chem, 2021).

For experiment [1], the system named is SH-SY5Y. Kind of experiment: Induction of apoptosis in human SH-SY5Y cells assessed as necrotic cells at 250 nM preincubated for 2 hrs followed by coincubation with Abeta42 and measured after 72 hrs by Annexin V-FITC/propidium iodide staining based flow cytometry (Rvb=0.7%). The format is functional. Conditions: time 74 hrs. On the technique in general: In flow cytometry, cells or beads pass a laser one at a time.

Experiment [2] deals with Rattus norvegicus. The experiment in a line: Antialzheimer activity against hippocampal tissue of okadaic acid induced Sprague-Dawley rat assessed as reduction on GSK3beta protein level at 200 to 600 uM, iv by immunohistochemical staining based analysis. It counts as functional, organism-based. Conditions: Hippocampus, dose 200-600 µM.
The test system of experiment [3] is SH-SY5Y. The experiment in a line: Induction of apoptosis in human SH-SY5Y cells assessed as live cells at 125 nM preincubated for 2 hrs followed by coincubation with Abeta42 and measured after 72 hrs by Annexin V-FITC/propidium iodide staining based flow cytometry (Rvb=94.8%). The format is functional. The settings on record: time 74 hrs.
Experiment [4] deals with Glycogen synthase kinase-3 alpha (Homo sapiens) (UniProt P49840). Kind of experiment: Induction of GSK3alpha degradation in human SH-SY5Y cells assessed as recovery of GSK3alpha protein pretreated for 12 hrs followed by compound washout and measured upto 36 hrs by western blot assay. It counts as cell-based. Conditions: time 48.0 hrs. Background: In western blotting, separated proteins are transferred to a membrane and probed.

The target of experiment [5] is T1, Protein cereblon/Glycogen synthase kinase-3 alpha (Homo sapiens, UniProt P49840+Q96SW2). Kind of experiment: Protac activity at CRBN/GSK3alpha in human SH-SY5Y cells assessed as induction of GSK3alpha protein degradation at 1 uM measured after 24 hrs. The format is cell-based.
Target sequence in this assay (P49840 2-483 limits assumed): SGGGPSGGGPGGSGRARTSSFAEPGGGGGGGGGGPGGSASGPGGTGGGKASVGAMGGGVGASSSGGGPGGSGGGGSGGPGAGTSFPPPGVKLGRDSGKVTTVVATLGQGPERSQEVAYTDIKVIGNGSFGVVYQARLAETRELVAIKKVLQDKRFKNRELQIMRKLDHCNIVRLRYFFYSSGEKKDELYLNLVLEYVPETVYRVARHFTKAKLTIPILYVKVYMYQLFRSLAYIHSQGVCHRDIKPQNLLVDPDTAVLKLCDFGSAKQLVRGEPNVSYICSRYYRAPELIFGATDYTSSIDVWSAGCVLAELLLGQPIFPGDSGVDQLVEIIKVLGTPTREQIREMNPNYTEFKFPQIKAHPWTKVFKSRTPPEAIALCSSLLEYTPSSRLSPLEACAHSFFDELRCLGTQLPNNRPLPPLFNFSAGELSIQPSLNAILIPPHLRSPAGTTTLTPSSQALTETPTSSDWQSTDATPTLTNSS
Target sequence in this assay (Q96SW2 whole entry partner): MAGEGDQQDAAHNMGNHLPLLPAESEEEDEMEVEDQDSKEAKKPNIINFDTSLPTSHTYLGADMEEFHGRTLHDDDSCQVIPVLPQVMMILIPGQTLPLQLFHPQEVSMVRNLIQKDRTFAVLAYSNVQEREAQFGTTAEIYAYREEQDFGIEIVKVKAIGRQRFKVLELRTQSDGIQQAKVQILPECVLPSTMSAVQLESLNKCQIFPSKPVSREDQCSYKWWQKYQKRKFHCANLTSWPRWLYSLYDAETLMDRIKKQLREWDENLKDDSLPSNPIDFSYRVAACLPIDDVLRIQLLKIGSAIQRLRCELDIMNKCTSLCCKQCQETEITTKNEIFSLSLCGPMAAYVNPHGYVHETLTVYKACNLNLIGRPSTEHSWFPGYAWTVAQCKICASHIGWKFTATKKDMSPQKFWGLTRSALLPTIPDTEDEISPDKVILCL
For experiment [6], the system named is SH-SY5Y. Kind of experiment: Induction of GSK3beta degradation in human SH-SY5Y cells assessed as recovery of GSK3beta protein pretreated for 12 hrs followed by compound washout and measured upto 36 hrs by western blot assay. The format is cell-based. Conditions: time 48.0 hrs.
Experiment [7] deals with SH-SY5Y. The experiment in a line: Induction of apoptosis in human SH-SY5Y cells assessed as early apoptotic cells at 62.5 nM preincubated for 2 hrs followed by coincubation with Abeta42 and measured after 72 hrs by Annexin V-FITC/propidium iodide staining based flow cytometry (Rvb=1%). It counts as functional. The settings on record: time 74 hrs.
Experiment [8] has as its system Rattus norvegicus. Kind of experiment: Antialzheimer activity against hippocampal tissue of okadaic acid induced Sprague-Dawley rat assessed as reduction on GSK3alpha protein level at 200 to 600 uM, iv by western blot assay. Conditions: Hippocampus, dose 200-600 µM. The format is functional, organism-based.
The target of experiment [9] is T1, Protein cereblon/Glycogen synthase kinase-3 alpha. Kind of experiment: Protac activity at CRBN/GSK3alpha in human SH-SY5Y cells assessed as GSK3alpha degradation at 1 uM pretreated with MG-132 for 2 hrs followed by compound addition and measured after 24 hrs. The format is cell-based.
Target sequence in this assay (P49840 2-483 limits assumed): as the sequence (P49840 2-483 limits assumed) above
Target sequence in this assay (Q96SW2 whole entry partner): as the sequence (Q96SW2 whole entry partner) above
Experiment [10] relates to SH-SY5Y. Kind of experiment: Induction of GSK3beta degradation in human SH-SY5Y cells assessed as maximum degradation at 1 uM measured after 9 hrs by western blot assay. The format is cell-based.
Experiment [11] addresses T1, Protein cereblon/Glycogen synthase kinase-3 alpha. Kind of experiment: Protac activity at CRBN/GSK3alpha in human SH-SY5Y cells assessed as induction of GSK3alpha protein degradation measured after 24 hrs. It counts as cell-based.
Target sequence in this assay (P49840 whole entry): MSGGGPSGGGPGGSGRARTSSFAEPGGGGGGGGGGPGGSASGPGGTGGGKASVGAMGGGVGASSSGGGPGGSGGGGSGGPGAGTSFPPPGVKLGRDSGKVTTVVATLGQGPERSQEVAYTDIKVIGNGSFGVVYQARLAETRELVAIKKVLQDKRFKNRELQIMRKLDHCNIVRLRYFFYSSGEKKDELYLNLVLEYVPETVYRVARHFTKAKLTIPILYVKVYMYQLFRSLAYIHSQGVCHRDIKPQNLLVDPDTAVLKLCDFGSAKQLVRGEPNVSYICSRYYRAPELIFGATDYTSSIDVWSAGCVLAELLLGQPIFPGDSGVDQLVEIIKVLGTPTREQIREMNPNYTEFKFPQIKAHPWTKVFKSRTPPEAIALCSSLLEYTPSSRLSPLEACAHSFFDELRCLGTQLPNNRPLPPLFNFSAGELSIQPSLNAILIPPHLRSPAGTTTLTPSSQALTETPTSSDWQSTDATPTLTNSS
Target sequence in this assay (Q96SW2 whole entry): as the sequence (Q96SW2 whole entry partner) above
Experiment [12] deals with SH-SY5Y. The experiment in a line: Induction of apoptosis in human SH--SY5Y cells assessed as late apoptotic cells at 250 nM preincubated for 2 hrs followed by coincubation with Abeta42 and measured after 72 hrs by Annexin V-FITC/propidium iodide staining based flow cytometry (Rvb=3.5%). It counts as functional. The settings on record: time 74 hrs.
Experiment [13] has as its system Rattus norvegicus. The experiment in a line: Antialzheimer activity against okadaic acid induced Sprague-Dawley rat assessed as reduction in escape latency time to hidden platform at 200 to 600 uM, iv measured upto 5 days by Morris water maze test. It counts as functional, organism-based. The settings on record: dose 200-600 µM, time day <=5.
The nature of experiment [14]: Downregulation of GSK3beta expression in human SH-SY5Y cells accessed as fold change in GSK3beta expression at 1 uM measured after 4 hrs by proteomic analysis. It counts as functional.
Experiment [15] has as its target T1, Protein cereblon/Glycogen synthase kinase-3 alpha. The experiment in a line: Protac activity at CRBN/GSK3alpha in human SH-SY5Y cells assessed as GSK3alpha degradation at 1 uM pretreated with pomalidomide for 2 hrs followed by compound addition and measured after 24 hrs. The format is cell-based.
Target sequence in this assay (P49840 2-483 limits assumed): as the sequence (P49840 2-483 limits assumed) above
Target sequence in this assay (Q96SW2 whole entry partner): as the sequence (Q96SW2 whole entry partner) above
In experiment [16] the target is Protein cereblon/Glycogen synthase kinase-3 beta (Homo sapiens, UniProt P49841+Q96SW2). The experiment in a line: Protac activity at CRBN/GSK3beta in human SH-SY5Y cells assessed as GSK3beta degradation at 1 uM pretreated with MG-132 for 2 hrs followed by compound addition and measured after 24 hrs. It counts as cell-based.

Activity calls are given as the source filed them. The rule behind the calls is not given here.

Sequence of Glycogen synthase kinase-3 alpha (Homo sapiens) (P49840 2-483 limits assumed): as the sequence (P49840 2-483 limits assumed) above
Sequence of Protein cereblon/Glycogen synthase kinase-3 beta (P49841 whole entry, looked up): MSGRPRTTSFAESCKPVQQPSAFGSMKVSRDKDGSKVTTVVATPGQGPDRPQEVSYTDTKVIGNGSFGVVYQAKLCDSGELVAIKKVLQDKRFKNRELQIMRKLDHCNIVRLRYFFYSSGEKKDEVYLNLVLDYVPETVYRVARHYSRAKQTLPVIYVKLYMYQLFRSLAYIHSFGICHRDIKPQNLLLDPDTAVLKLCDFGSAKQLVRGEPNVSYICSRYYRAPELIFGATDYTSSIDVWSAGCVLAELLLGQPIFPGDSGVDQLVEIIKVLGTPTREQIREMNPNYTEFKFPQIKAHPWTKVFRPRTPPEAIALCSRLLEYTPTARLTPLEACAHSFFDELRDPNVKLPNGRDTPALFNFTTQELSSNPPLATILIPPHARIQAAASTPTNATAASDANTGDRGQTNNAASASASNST
Sequence of Protein cereblon/Glycogen synthase kinase-3 beta (Q96SW2 whole entry, looked up): as the sequence (Q96SW2 whole entry partner) above

In the case of `Nc1ncc(-c2ccc(S(=O)(=O)N3CCN(CCCCc4cn(CCOCCOCCOCCOCCOCCNc5cccc6c5C(=O)N(C5CCC(=O)NC5=O)C6=O)nn4)CC3)cc2)nc1C(=O)Nc1cccnc1` (stereo unspecified), the Activity worked out at 2.8% in the experiment on SH-SY5Y [1]; 83% in the experiment with SH-SY5Y [3]; 94.3% in experiment [5]; 1% with SH-SY5Y [7]; 6.5% in the experiment with SH-SY5Y [12]. The outcome (in the experiment on Rattus norvegicus [2]; in experiment [4]; in the experiment with SH-SY5Y [6]; with Rattus norvegicus [8]; in the experiment with SH-SY5Y [10]) was Active. Further, the outcome (in [9]; in the experiment with Rattus norvegicus [13]; in [15]; in experiment [16]) was inactive. Further, the DC50 in experiment [11] came to 28.3 nM. Besides, the “fold change (FC)” value in [14] is reported as 0.33.

What is called DC50 is the concentration at which degradation of the target reaches its halfway point.
